The text below walks through data of patent US5861476A, “Peptides and compounds that bind to the IL-1 receptor” (Affymax Technologies N.V., priority 1995, dated 1999).

Where a SMILES comes first, the peptide text is derived from it. Where no end group is shown, it is not given here. [ ]: non-standard residue; d: D form. Bpa = N[C@@H](Cc1ccc(C(=O)c2ccccc2)cc1)C(=O)O; pY = N[C@@H](Cc1ccc(OP(=O)(O)O)cc1)C(=O)O; 1Nal = N[C@@H](Cc1cccc2ccccc12)C(=O)O; Aze = O=C(O)[C@@H]1CCN1; Sar = CNCC(=O)O

The first assay addresses T1, IL-1RtI (Homo sapiens, UniProt P14778).
T1 construct: made in house; host or cells: recombinant host cells (one form soluble from baculovirus transformed host cells; another PIG-tailed and cleaved from the cell surface)
T1 sequence (P14778 18-336): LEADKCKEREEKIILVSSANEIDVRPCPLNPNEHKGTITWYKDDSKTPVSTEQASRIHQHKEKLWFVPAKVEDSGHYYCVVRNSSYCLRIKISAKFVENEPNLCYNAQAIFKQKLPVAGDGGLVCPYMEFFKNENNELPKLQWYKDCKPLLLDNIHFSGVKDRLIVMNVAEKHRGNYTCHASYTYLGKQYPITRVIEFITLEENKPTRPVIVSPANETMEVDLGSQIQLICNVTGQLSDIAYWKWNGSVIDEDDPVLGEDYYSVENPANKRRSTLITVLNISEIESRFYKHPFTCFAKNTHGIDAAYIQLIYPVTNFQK
Nature of the assay: Inhibition of 125I-IL-1α binding to IL-1RtI (Example 3).
Conditions: not given
Summed up: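 Competition with 90 pM 125I-IL-1α was run in duplicate for 2 h at 4 °C in HEPES-buffered RPMI with 1% BSA, pH 7.2-7.3, against either antibody-captured truncated receptor or cells with full-length IL-1RtI. Gamma counting of NaOH-detached material gave approximate IC50; high-affinity peptides used 24-well format.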
In the case of `CC(C)C[C@H](NC(=O)[C@@H]1CCCN1C(=O)[C@H](CC(C)C)NC(=O)[C@H](C)NC(=O)[C@H](Cc1ccc(O)cc1)NC(=O)[C@@H]1CCN1C(=O)[C@H](CCC(N)=O)NC(=O)[C@H](Cc1ccc(OP(=O)(O)O)cc1)NC(=O)[C@H](Cc1cccc2ccccc12)NC(=O)[C@@H](N)Cc1ccc(OP(=O)(O)O)cc1)C(=O)O` [pY(1Nap)pYQJYALPL] (H-[pY][1Nal][pY]Q[Aze]YALPL-OH), the IC50 was < 0.5 µM.

Staying with this assay, now noted: inhibition of 125I-IL-1α binding to IL-1RtI; soluble peptide unless marked *.
DGYDRWRQSGERYWQPYALPL: the IC50 is ≤ 0.5 µM.
Take `CC(C)C[C@H](NC(=O)[C@@H]1CCCN1C(=O)[C@H](CC(C)C)NC(=O)[C@H](C)NC(=O)[C@H](Cc1ccc(O)cc1)NC(=O)[C@@H]1CCN1C(=O)[C@H](CCC(N)=O)NC(=O)[C@H](Cc1c[nH]c2ccccc12)NC(=O)[C@H](Cc1ccc(O)cc1)NC(=O)[C@@H](NC(=O)[C@H](Cc1ccccc1)NC(=O)[C@@H](N)[C@@H](C)O)C(C)C)C(=O)O` [TFVYWQJYALPL] (H-TFVYWQ[Aze]YALPL-OH): the IC50 was ≤ 100 µM.
As to `C[C@@H](O)[C@H](NC(=O)[C@H](Cc1c[nH]c2ccccc12)NC(=O)[C@H](CCC(=O)O)NC(=O)[C@@H](N)Cc1ccccc1)C(=O)N1CCC[C@H]1C(=O)NCC(=O)N[C@@H](Cc1ccc(O)cc1)C(=O)N[C@@H](Cc1c[nH]c2ccccc12)C(=O)N[C@@H](CCC(N)=O)C(=O)N1CC[C@H]1C(=O)N[C@@H](Cc1ccc(O)cc1)C(N)=O` [FEWTPGYWQJY--NH2] (H-FEWTPGYWQ[Aze]Y-NH2), the IC50 was ≤ 0.5 µM.
The same measure, in the same setting: the same measure for ETPFTWEESNAYYWQPYALPL: ≤ 0.5 µM.
In the case of `C[C@H](NC(=O)[C@H](Cc1ccc(O)cc1)NC(=O)CNC(=O)[C@@H]1CCCN1C(=O)[C@@H](NC(=O)[C@H](Cc1c[nH]c2ccccc12)NC(=O)[C@H](CCC(=O)O)NC(=O)[C@@H](N)Cc1ccccc1)[C@@H](C)O)C(=O)N[C@@H](CCC(N)=O)C(=O)N1CC[C@H]1C(=O)N[C@@H](Cc1ccc(O)cc1)C(N)=O` [FEWTPGYAQJY--NH2] (H-FEWTPGYAQ[Aze]Y-NH2), the IC50 was ≤ 100 µM.
With ARFWLQPYALPL [ARFWLQ PYALPL], the IC50 was ≤ 100 µM.
As for MWYQPYSSQPAE [MWYQPYSSQPAE], the IC50 was ≤ 100 µM.
On to `C[C@@H](O)[C@H](NC(=O)[C@H](Cc1c[nH]c2ccccc12)NC(=O)[C@H](CCC(=O)O)NC(=O)[C@@H](N)Cc1ccccc1)C(=O)N1CCC[C@H]1C(=O)NCC(=O)N[C@@H](Cc1ccc(O)cc1)C(=O)N[C@@H](Cc1ccc(O)cc1)C(=O)N[C@@H](CCC(N)=O)C(=O)N1CC[C@H]1C(=O)N[C@@H](Cc1ccc(C(=O)c2ccccc2)cc1)C(N)=O` [FEWTPGYYQJ--Bpa--NH2] (H-FEWTPGYYQ[Aze][Bpa]-NH2), for which the IC50 is ≤ 100 µM.
Still for that read-out and setting: next, `C[C@@H](O)[C@H](NC(=O)[C@H](Cc1c[nH]c2ccccc12)NC(=O)[C@H](CCC(=O)O)NC(=O)[C@@H](N)Cc1ccccc1)C(=O)N1CCC[C@H]1C(=O)N[C@@H](CC(N)=O)C(=O)N[C@@H](Cc1ccc(O)cc1)C(=O)N[C@@H](Cc1c[nH]c2ccccc12)C(=O)N[C@@H](CCC(N)=O)C(=O)N1CC[C@H]1C(=O)N[C@@H](Cc1ccc(O)cc1)C(N)=O` [FEWTPNYWQJY--NH2] (H-FEWTPNYWQ[Aze]Y-NH2): ≤ 0.5 µM.
Still for that read-out and setting: the same measure for WRDSVYWQPYSVQPESA [WRDS VYWQPYSVQ PESA]: ≤ 100 µM.
Same read-out and setting: next, VIEWWQPYALPL [VIEWWQ PYALPL]: ≤ 100 µM.
For `C[C@H](NC(=O)[C@@H]1CCCN1C(=O)[C@@H](NC(=O)[C@H](Cc1c[nH]c2ccccc12)NC(=O)[C@H](CCC(=O)O)NC(=O)[C@@H](N)Cc1ccccc1)[C@@H](C)O)C(=O)N[C@@H](Cc1ccc(O)cc1)C(=O)N[C@@H](Cc1c[nH]c2ccccc12)C(=O)N[C@@H](CCC(N)=O)C(=O)N1CC[C@H]1C(=O)N[C@@H](Cc1ccc(O)cc1)C(N)=O` [FEWTPAYWQJY--NH2] (H-FEWTPAYWQ[Aze]Y-NH2), the IC50 was ≤ 0.5 µM.
Still for that read-out and setting: the same measure for DWFQPYSIQSDE [DWFQPYSIQSDE]: ≤ 100 µM; for `C[C@@H](O)[C@H](NC(=O)[C@H](Cc1c[nH]c2ccccc12)NC(=O)[C@H](CCC(=O)O)NC(=O)[C@@H](N)Cc1ccccc1)C(=O)N1CC[C@H]1C(=O)NCC(=O)N[C@@H](Cc1ccc(O)cc1)C(=O)N[C@@H](Cc1c[nH]c2ccccc12)C(=O)N[C@@H](CCC(N)=O)C(=O)N1CC[C@H]1C(=O)N[C@@H](Cc1ccc(O)cc1)C(N)=O` [FEWTJGYWQJY--NH2] (H-FEWT[Aze]GYWQ[Aze]Y-NH2): ≤ 0.5 µM.
The same measure, in the same setting: next, QRIWWQPYALPL [QRIWWQ PYALPL]: ≤ 100 µM; `C[C@@H](O)[C@H](NC(=O)[C@H](Cc1c[nH]c2ccccc12)NC(=O)[C@H](CCC(=O)O)NC(=O)[C@@H](N)Cc1ccccc1)C(=O)N(C)CC(=O)NCC(=O)N[C@@H](Cc1ccc(O)cc1)C(=O)N[C@@H](Cc1c[nH]c2ccccc12)C(=O)N[C@@H](CCC(N)=O)C(=O)N1CC[C@H]1C(=O)N[C@@H](Cc1ccc(O)cc1)C(N)=O` [FEWTSarGYWQJY--NH2] (H-FEWT[Sar]GYWQ[Aze]Y-NH2): ≤ 0.5 µM; `C[C@H](NC(=O)CNC(=O)[C@@H]1CCCN1C(=O)[C@@H](NC(=O)[C@H](Cc1c[nH]c2ccccc12)NC(=O)[C@H](CCC(=O)O)NC(=O)[C@@H](N)Cc1ccccc1)[C@@H](C)O)C(=O)N[C@@H](Cc1c[nH]c2ccccc12)C(=O)N[C@@H](CCC(N)=O)C(=O)N1CC[C@H]1C(=O)N[C@@H](Cc1ccc(O)cc1)C(N)=O` [FEWTPGAWQJY--NH2] (H-FEWTPGAWQ[Aze]Y-NH2): 0.5 µM.
Still for that read-out and setting: the same measure for “NMVYWQPYSIQT [Peptide 3H7, NMVYWQPYSIQT]”: ≤ 100 µM; for DNTAWYENFLL [DNTAWYENFLL]: ≤ 100 µM.
Regarding `C[C@H](N)C(=O)N[C@@H](CCC(=O)O)C(=O)N[C@@H](Cc1c[nH]c2ccccc12)C(=O)N[C@H](C(=O)N1CCC[C@H]1C(=O)NCC(=O)N[C@@H](Cc1ccc(O)cc1)C(=O)N[C@@H](Cc1c[nH]c2ccccc12)C(=O)N[C@@H](CCC(N)=O)C(=O)N1CC[C@H]1C(=O)N[C@@H](Cc1ccc(O)cc1)C(N)=O)[C@@H](C)O` [AEWTPGYWQJY--NH2] (H-AEWTPGYWQ[Aze]Y-NH2), the IC50 was ≤ 100 µM.
As for SRVWFQPYSLQS [3H1, 6, 12, SRVWFQPYSLQS], the IC50 was ≤ 100 µM.
The same measure, in the same setting: the same measure for YYTWQQPYALPL [YYTWQQ PYALPL]: > 100 µM; for NSYFWQPYALPL [NSYFWQ PYALPL]: ≤ 100 µM.

The next assay concerns the target T2, IL-1 induced down-regulation of the epidermal growth factor (EGF) receptor in normal human dermal fibroblasts (NHDF) (Homo sapiens, UniProt P14778).
T2 sequence (P14778 18-569): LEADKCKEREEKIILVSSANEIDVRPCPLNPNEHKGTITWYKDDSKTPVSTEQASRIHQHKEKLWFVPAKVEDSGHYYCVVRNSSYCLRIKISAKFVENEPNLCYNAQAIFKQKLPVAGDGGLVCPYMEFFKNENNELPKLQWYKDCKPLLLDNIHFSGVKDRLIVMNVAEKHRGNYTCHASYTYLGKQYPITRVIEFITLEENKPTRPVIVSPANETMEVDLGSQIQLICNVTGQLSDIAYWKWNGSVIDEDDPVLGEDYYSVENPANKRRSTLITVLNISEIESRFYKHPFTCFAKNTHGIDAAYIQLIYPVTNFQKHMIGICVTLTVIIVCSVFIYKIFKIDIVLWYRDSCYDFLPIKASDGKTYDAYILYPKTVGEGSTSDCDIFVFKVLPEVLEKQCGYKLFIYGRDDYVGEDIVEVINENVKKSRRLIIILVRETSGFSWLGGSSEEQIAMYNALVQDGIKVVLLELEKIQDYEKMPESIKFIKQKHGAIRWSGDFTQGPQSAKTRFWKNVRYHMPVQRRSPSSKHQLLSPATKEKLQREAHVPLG
Nature of the assay: Epidermal Growth Factor Receptor Down Regulation Assay. The class given is cell-based. The conditions noted are these: 37° C., in the presence of IL-1α, 125I-labeled EGF binding, read-out: IC50 (approximate concentration which blocked 50% of the IL-1 induced down regulation of the EGF receptor). An excerpt: The protocol set forth in Bird and Saklatvala (1989) J. Immunol. […] This assay examines the effect of the compounds of the invention on the IL-1 induced down-regulation of the epidermal growth factor (EGF) receptor as measured by the binding of ^125 I-labeled EGF to its receptor in normal human dermal fibroblasts (NHDF). […] The table below lists the approximate concentration of representative peptides of the invention which blocked 50% of the IL-1 induced down regulation of the EGF receptor. IC50 values are indicated symbolically by the symbols "-", "+", and "++". […] Those peptides which give IC50 values of less than or equal to 100 μM are given a "+", while those which give IC50 values of 500 nM or less are indicated with a "++". Those peptides which give IC50 values at or near the cutoff point for a particular symbol are indicated with a hybrid, e.g. "±". Those peptides for which IC50 values were not determined are listed as "N.D".
With `CC(C)C[C@H](NC(=O)[C@@H]1CCCN1C(=O)[C@H](CC(C)C)NC(=O)[C@H](C)NC(=O)[C@H](Cc1ccc(O)cc1)NC(=O)[C@@H]1CCCN1C(=O)[C@H](CCC(N)=O)NC(=O)[C@H](Cc1c[nH]c2ccccc12)NC(=O)[C@H](Cc1ccc(O)cc1)NC(=O)[C@H](NC(=O)[C@H](Cc1ccccc1)NC(=O)[C@@H](N)[C@@H](C)O)C(C)C)C(=O)O` [TFvYWQPYALPL] (H-TF[dV]YWQPYALPL-OH), the IC50 was > 100 µM.
With DGYDRWRQSGERYWQPYALPL, the IC50 was ≤ 0.5 µM.
Regarding YIPFTWEESNAYYWQPYALPL, the IC50 is ≤ 0.5 µM.
On the same count and under the same terms, the same measure for `CC(C)C[C@H](NC(=O)[C@@H]1CCCN1C(=O)[C@H](CC(C)C)NC(=O)[C@H](C)NC(=O)[C@H](Cc1ccc(O)cc1)NC(=O)[C@@H]1CCN1C(=O)[C@H](CCC(N)=O)NC(=O)[C@H](Cc1c[nH]c2ccccc12)NC(=O)[C@H](Cc1ccc(O)cc1)NC(=O)[C@@H](NC(=O)[C@H](Cc1ccccc1)NC(=O)[C@@H](N)[C@@H](C)O)C(C)C)C(=O)O` [TFVYWQJYALPL] (H-TFVYWQ[Aze]YALPL-OH): > 100 µM; for `C[C@@H](O)[C@H](NC(=O)[C@H](Cc1c[nH]c2ccccc12)NC(=O)[C@H](CCC(=O)O)NC(=O)[C@@H](N)Cc1ccccc1)C(=O)N1CCC[C@H]1C(=O)NCC(=O)N[C@@H](Cc1ccc(O)cc1)C(=O)N[C@@H](Cc1c[nH]c2ccccc12)C(=O)N[C@@H](CCC(N)=O)C(=O)N1CC[C@H]1C(=O)N[C@@H](Cc1ccc(O)cc1)C(N)=O` [FEWTPGYWQJY--NH2] (H-FEWTPGYWQ[Aze]Y-NH2): ≤ 100 µM; for “FEWTPGYWQPYALPLSD-NH2 [FEWTPGYWQPYALPLSD--NH2]”: ≤ 0.5 µM.
For the molecule `CC(C)C[C@H](NC(=O)[C@@H]1CCCN1C(=O)[C@H](CC(C)C)NC(=O)[C@H](C)NC(=O)[C@H](Cc1ccc(O)cc1)NC(=O)[C@@H]1CCN1C(=O)[C@H](CCC(N)=O)NC(=O)[C@H](Cc1ccc(OP(=O)(O)O)cc1)NC(=O)[C@H](Cc1cccc2ccccc12)NC(=O)[C@@H](N)Cc1ccc(OP(=O)(O)O)cc1)C(=O)O` [pY(1Nap)pYQJYALPL] (H-[pY][1Nal][pY]Q[Aze]YALPL-OH), the IC50 was ≤ 0.5 µM.
Consider ETPFTWEESNAYYWQPYALPL, for which the IC50 was ≤ 0.5 µM.
